In the NIST ThermoML archive (doi:10.1016/j.fluid.2009.06.002):
Numbers after ± are expanded uncertainties.

Details: Liquid; for mass density / viscosity: 298.15 K; for mass density: 101.33 kPa; for vapor or sublimation pressure: Twin ebulliometer

C1C[C@@H]2[C@H]3CC[C@H](C3)[C@@H]2C1 [exo-tetrahydrodicyclopentadiene]
Details | mass density [kg/m3] | vapor or sublimation pressure [kPa] | viscosity [mPa·s]
– | 931.4 ± 2 | – | 2.739 ± 0.056
393 K | – | 14.8 ± 0.9 | –
397.64 K | – | 17.5 ± 1.1 | –
402.29 K | – | 20.7 ± 1.2 | –
406.93 K | – | 24.2 ± 1.5 | –
411.57 K | – | 28.2 ± 1.7 | –
416.21 K | – | 32.7 ± 2 | –
420.86 K | – | 37.8 ± 2.3 | –
425.5 K | – | 43.3 ± 2.6 | –
430.14 K | – | 49.5 ± 3 | –
434.79 K | – | 56.3 ± 3.4 | –
439.43 K | – | 63.8 ± 3.8 | –
444.07 K | – | 72 ± 4.3 | –
448.71 K | – | 80.9 ± 4.9 | –
453.36 K | – | 90.6 ± 5.4 | –
458 K | – | 101.1 ± 6.1 | –

COC(=O)OC [dimethyl carbonate]
Details | mass density [kg/m3] | vapor or sublimation pressure [kPa] | viscosity [mPa·s]
– | 1063.4 ± 0.1 | – | 0.578 ± 0.016
310 K | – | 12.17 ± 0.17 | –
313.86 K | – | 14.7 ± 0.21 | –
317.71 K | – | 17.65 ± 0.25 | –
321.57 K | – | 21.05 ± 0.3 | –
325.43 K | – | 24.96 ± 0.35 | –
329.29 K | – | 29.43 ± 0.41 | –
333.14 K | – | 34.51 ± 0.48 | –
337 K | – | 40.26 ± 0.56 | –
340.86 K | – | 46.73 ± 0.66 | –
344.71 K | – | 53.99 ± 0.76 | –
348.57 K | – | 62.11 ± 0.87 | –
352.43 K | – | 71.13 ± 1 | –
356.29 K | – | 81.14 ± 1.1 | –
360.14 K | – | 92.2 ± 1.3 | –
364 K | – | 104.4 ± 1.5 | –
